Measurements as given in ChEMBL document CHEMBL1152598, “Synthesis and dopaminergic activity of some E-3-(piperidin-1-yl)-1-(4-substituted phenyl)prop-2-en-1-one derivatives” (2009).
The source made the active and inactive calls. No cut-off for these calls is given here.

The compounds below were run on Rattus norvegicus (assay: Effect on dopaminergic activity in apomorphine-induced Wistar rat assessed as licking count at 10 to 30 mg/kg, ip treated 15 mins before apomorphine challenge measured after 10 mins for 60 mins by behavioral study). Conditions: not given.

For `O=C(/C=C/N1CCC(O)(c2ccc(Cl)cc2)CC1)c1ccc(O)cc1O`, the Activity was “Active”.

The compounds below were run on Rattus norvegicus (assay: Dopaminergic activity in apomorphine-induced Wistar rat assessed as licking count at 0.5 mg/kg, iv treated 15 mins before apomorphine challenge measured after 10 mins for 60 mins by behavioral study). Conditions: not given.
Format: functional

With `O=C(CCCN1CCC(O)(c2ccc(Cl)cc2)CC1)c1ccc(F)cc1` [HALOPERIDOL] the Activity was 3.667.

Each compound was assayed on Rattus norvegicus (assay: Dopaminergic activity in apomorphine-induced Wistar rat assessed as licking count at 30 mg/kg, ip treated 15 mins before apomorphine challenge measured after 10 mins for 60 mins by behavioral study). Conditions: route intraperitoneal.

First: O=C(/C=C/N1CCC(O)(c2ccc(Cl)cc2)CC1)c1ccc(O)cc1O
Second: O=C(/C=C/N1CCC(O)(c2ccc(Br)cc2)CC1)c1ccc(O)cc1O
The Activity of the first is lower: 115 for the first, 1860 for the second.

First: COc1ccc(C(=O)/C=C/N2CCC(O)(c3ccc(Br)cc3)CC2)c(O)c1
Second: COc1ccc(C(=O)/C=C/N2CCC(O)(c3ccc(Cl)cc3)CC2)c(O)c1
The Activity of the first is lower: 1140 for the first, 1575 for the second.

First: COc1ccc(C(=O)/C=C/N2CCC(O)(c3ccccc3)CC2)c(O)c1
Second: O=C(/C=C/N1CCC(O)(c2ccccc2)CC1)c1ccc(O)cc1O
The Activity of the first is higher: 1800 for the first, 1317 for the second.

First: O=C(/C=C/N1CCC(Cc2ccccc2)CC1)c1ccc(O)cc1O
Second: COc1ccc(C(=O)/C=C/N2CCC(Cc3ccccc3)CC2)c(O)c1
The Activity of the first is higher: 618 for the first, 520 for the second.

First: O=C(/C=C/N1CCC(c2ccc(O)cc2)CC1)c1ccc(O)cc1O
Second: COc1ccc(C(=O)/C=C/N2CCC(c3ccc(O)cc3)CC2)c(O)c1
The Activity of the first is lower: 664 for the first, 1325 for the second.

Compared with `COc1ccc(C(=O)/C=C/N2CCC(O)(c3ccc(O)cc3)CC2)c(O)c1`, `O=C(/C=C/N1CCC(O)(c2ccc(O)cc2)CC1)c1ccc(O)cc1O` is lower in Activity: 2675 for the first, 1450 for the second.
